Reference: article PMC4593646, “The Cyclooctadepsipeptide Anthelmintic Emodepside Differentially Modulates Nematode, Insect and Human Calcium-Activated Potassium (SLO) Channel Alpha Subunits” (PLoS Neglected Tropical Diseases, 2015)

Columns and labels:
Drosophila Slo (Dm Slo) = target: T1, Drosophila Slo (Dm Slo) (Drosophila melanogaster, UniProt Q03720); test: whole cell voltage clamp, CHO cells stably expressing Dm Slo, dose-response; assay type: cell-based
T1 construct: alpha subunit, stably expressed in CHO cells

[1] = target: T2, human KCNMA1 (hum KCNMA1) (Homo sapiens, UniProt Q12791); test: whole cell patch clamp, transfected HEK293 cells; transient facilitation then inhibition at […]; assay type: cell-based
T2 construct: KCNMA1 variant 2/isoform b (NP_002238), expressed in HEK293 cells
T2 sequence (Q12791 whole entry, canonical isoform): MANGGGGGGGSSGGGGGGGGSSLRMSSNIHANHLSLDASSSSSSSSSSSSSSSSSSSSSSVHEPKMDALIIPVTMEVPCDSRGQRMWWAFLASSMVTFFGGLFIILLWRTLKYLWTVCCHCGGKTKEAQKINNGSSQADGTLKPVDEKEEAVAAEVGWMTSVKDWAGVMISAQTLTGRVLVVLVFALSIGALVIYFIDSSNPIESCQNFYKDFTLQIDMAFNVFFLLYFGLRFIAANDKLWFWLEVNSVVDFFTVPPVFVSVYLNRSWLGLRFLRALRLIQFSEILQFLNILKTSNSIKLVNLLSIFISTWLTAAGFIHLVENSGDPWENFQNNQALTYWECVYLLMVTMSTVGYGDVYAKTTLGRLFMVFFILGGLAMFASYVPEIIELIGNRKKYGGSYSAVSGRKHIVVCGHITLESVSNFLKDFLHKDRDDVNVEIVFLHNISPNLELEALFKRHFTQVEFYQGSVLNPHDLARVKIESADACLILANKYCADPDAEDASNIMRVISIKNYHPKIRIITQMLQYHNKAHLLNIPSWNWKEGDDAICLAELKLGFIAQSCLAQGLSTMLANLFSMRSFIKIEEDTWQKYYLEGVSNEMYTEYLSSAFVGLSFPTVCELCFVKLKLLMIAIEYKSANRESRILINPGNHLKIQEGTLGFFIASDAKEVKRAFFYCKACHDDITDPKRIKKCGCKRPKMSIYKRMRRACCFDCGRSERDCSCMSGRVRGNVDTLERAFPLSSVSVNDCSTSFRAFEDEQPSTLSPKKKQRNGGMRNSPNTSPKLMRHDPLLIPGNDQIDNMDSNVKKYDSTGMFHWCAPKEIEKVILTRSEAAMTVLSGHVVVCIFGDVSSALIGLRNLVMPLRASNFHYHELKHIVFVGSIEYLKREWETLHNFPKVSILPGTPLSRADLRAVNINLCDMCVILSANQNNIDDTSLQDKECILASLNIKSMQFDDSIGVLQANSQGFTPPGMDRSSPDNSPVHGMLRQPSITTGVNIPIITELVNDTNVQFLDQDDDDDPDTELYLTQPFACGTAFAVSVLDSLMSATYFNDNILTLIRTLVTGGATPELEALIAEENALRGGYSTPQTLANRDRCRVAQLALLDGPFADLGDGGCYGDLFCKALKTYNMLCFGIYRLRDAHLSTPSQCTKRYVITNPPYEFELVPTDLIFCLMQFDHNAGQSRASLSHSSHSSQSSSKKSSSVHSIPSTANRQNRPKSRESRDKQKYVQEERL

T1 sequence (Q03720 whole entry): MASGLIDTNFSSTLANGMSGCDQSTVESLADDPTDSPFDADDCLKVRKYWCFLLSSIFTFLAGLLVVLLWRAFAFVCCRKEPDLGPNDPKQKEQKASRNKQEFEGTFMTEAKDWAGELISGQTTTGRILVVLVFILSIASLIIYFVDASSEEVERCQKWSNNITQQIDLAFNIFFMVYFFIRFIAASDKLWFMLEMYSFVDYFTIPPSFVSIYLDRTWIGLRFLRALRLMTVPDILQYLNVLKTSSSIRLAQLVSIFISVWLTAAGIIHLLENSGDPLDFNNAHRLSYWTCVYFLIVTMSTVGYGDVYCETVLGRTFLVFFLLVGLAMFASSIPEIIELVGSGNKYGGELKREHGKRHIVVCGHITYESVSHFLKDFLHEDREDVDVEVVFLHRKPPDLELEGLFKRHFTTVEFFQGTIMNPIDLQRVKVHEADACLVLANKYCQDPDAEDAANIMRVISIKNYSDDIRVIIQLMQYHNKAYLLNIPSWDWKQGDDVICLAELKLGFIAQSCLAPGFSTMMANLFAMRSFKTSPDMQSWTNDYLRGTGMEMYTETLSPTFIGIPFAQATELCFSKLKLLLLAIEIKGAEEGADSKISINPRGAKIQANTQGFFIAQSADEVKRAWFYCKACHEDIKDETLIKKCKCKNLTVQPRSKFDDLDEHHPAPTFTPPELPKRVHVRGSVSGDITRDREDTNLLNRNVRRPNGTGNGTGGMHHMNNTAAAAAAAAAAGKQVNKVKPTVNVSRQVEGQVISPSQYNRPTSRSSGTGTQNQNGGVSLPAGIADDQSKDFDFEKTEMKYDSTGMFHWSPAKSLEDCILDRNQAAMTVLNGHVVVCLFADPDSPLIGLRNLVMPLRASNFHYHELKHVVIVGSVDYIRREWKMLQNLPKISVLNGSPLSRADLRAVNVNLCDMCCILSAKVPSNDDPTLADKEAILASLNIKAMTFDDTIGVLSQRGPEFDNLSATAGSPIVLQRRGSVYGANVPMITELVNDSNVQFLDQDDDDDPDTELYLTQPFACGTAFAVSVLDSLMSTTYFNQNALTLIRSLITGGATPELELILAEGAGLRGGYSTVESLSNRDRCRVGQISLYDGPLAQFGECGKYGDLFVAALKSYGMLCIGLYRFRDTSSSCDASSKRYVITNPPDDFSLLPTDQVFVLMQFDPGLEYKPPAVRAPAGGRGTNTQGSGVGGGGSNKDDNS

| SMILES | IC50 (Drosophila Slo (Dm Slo)) | whole cell patch clamp, transfected HEK293 cells; transient facilitation then in [1] |
| --- | --- | --- |
| COc1ccc2c3c4n(c2c1)[C@H](C=C(C)C)OOC(C)(C)C[C@@H]4N1C(=O)[C@@H]2CCCN2C(=O)[C@]1(O)[C@H]3O [verruculogen] | 6.2 nM | – |
| CC(C)C[C@H]1C(=O)O[C@H](Cc2ccc(N3CCOCC3)cc2)C(=O)N(C)[C@@H](CC(C)C)C(=O)O[C@H](C)C(=O)N(C)[C@@H](CC(C)C)C(=O)O[C@H](Cc2ccc(N3CCOCC3)cc2)C(=O)N(C)[C@@H](CC(C)C)C(=O)O[C@H](C)C(=O)N1C [emodepside] | – | In HEK293 cells expressing KCNMA1 emodepside elicited a biphasic, concentration-dependent effect on current amplitude |
| C=C(C)[C@H]1O[C@H]2CC[C@@]3(C)[C@@](O)(CC[C@H]4[C@@H]5OC(C)(C)[C@H]6C[C@@H]7C(=C)Cc8c(Cl)cc9[nH]c(c5c9c8[C@@]76O)[C@@]43C)[C@@]23O[C@H]3[C@H]1O [penitrem A] | 0.5 nM | – |
